Patent publication US10478431B2, “Methods for treating a cytomegalovirus infection” (priority 2014, dated 2019)
Structures can show the parent of a compound that is named as a salt.

Experiments:
[1] = system: IE2 negative feedback (LM2ig "low" cells); test: LM2ig "low" drug screen (4 day induction, high throughput flow cytometry); type: cell-based, human CMV (hCMV); settings: induction period of 4 days, FIG. 9
Method: LM2ig “low” cells (˜0% GFP positive before induction) were treated with agents in duplicate for an induction period of 4 days. During this induction period, the cell culture medium was not changed; images were taken every day for 4 days. On the final day, high throughput flow cytometry was carried out on FACS IntelliCyt. Agents tested were: Hoechst 33258, Hoechst 33342, VPA, TSA, TNF-α, hexamethylene bisacetamide (HMBA), phorbol myristate acetate (PMA), neotroposin, distamycin, DAPI, gemcitabine, prednisolone, suberanilohydroxamic acid (SAHA), (2E)-N-hydroxy-3-[4-({[2-(2-methyl-1H-indol-3-yl)ethyl]amino}methyl)phenyl]acrylamide (panobinostat), thapsigargin, JQ1, prostratin, dimizane acetate, pentamidine, or bendamustine.

[2] = system: IE2 negative feedback (MIEP-IE2-IRES-GFP construct, LM2ig); test: IE2 negative feedback reporter: cells harboring LM2ig (MIEP-IE2-IRES-GFP), GFP by flow cytometry; type: cell-based, human CMV (hCMV); settings: for increase in the number of GFP-positive cells: Hoechst 33342 0.25 μM, VPA concentrations as in Teng et al. (2012), cells harboring LM2ig, FIG. 6; for quiescent MIEP-driven expression in a reporter cell line: 20 μM Hoechst 33258, FACS, FIG. 4 upper panel; for production of IE2, as measured by GFP expression (GFP mean fluorescence intensity; GFP-MFI): ARPE-19 cells stably transduced with LM2ig, FIG. 1, FIG. 2
Method: (§1) MRCS fibroblasts and life-extended human foreskin fibroblasts (HFFs) (Bresnahan and Shenk, 2000) were maintained in Dulbecco's Modified Eagle's Medium (DMEM) supplemented with 10% fetal bovine serum (FBS) and 50 U/ml penicillin-streptomycin at 37° C. and 5% CO2 in a humidified incubator. ARPE-19 cells were maintained in a 1:1 mixture of DMEM/F-12 (Mediatech Inc.) with 10% FBS (HyClone) and 50 U/ml Penicillin-Streptomycin (Mediatech Inc.). Cells were treated with a final concentration of 1 mM valproic acid (VPA) (Calbiochem™), resuspended in dimethylsulfoxide, for approximately 24 hours before imaging. Cells were treated with a final concentration of 400 nM TSA (Sigma-Aldrich) resuspended in dimethylsulfoxide, for 20-24 hours, a final concentration of 10 ng/mL TNF-α (Sigma-Aldrich) resuspended in phosphate-buffered saline (PBS), or a final concentration of 1 mM VPA (Calbiochem) for approximately 24 hours before imaging.
(§2) Standard lentiviral cloning was used to create minimal major immediate early (MIE) circuits (Dull et al., 1998). The minimal MIEP-IE2-GFP and MIEP-GFP circuits are driven by a full-length ˜2.5 kb MIE promoter-enhancer (MIEP) that spans the sequence from the MIEP modulator at the 5′ edge to the junction of immediate early (IE) exons 1 and 2. The MIEP was polymerase chain reaction (PCR)-cloned from AD169 into pLEIGW in place of the EF1a promoter. This full-length MIEP drives an IE2-IRES-GFP or mCherry-IRES-GFP cassette. IE2 was cloned from pRSV-IE86 (a gift from Jay Nelson). ARPE-19 cells were infected and fluorescence-activated cell sorter (FACS) sorted for green fluorescent protein (GFP) fluorescence to create stably expressing cell lines. Cells were treated with Trichostatin-A (TSA) for 17 hours, and GFP expression was quantified by flow cytometry. Live cells were gated by forward-versus-side scattering on a FacsCalibur™ cytometer (BD Biosciences) and mean fluorescence intensity recorded. At least 20,000 live cells were recorded for each experiment and data was analyzed in FlowJo™ (Treestar Inc.).
See WO 2014/127148 for descriptions of MIEP-IE2-reporter constructs. For example, LM2ig construct is depicted in FIG. 7 of WO 2014/127148.

[3] = system: latent CMV in N-Tera2 cells; test: N-Tera2 latency assay (reactivation of latent CMV); type: cell-based, human CMV (hCMV); settings: FIG. 4 lower panel
Method: Reactivation of latent CMV in N-Tera2 cells was conducted as previously described in (Meier, 2001).

[4] = system: ARPE-19 cells stably transduced with LM2ig; test: Viability of ARPE-19 cells stably transduced with LM2ig; type: cell-based; settings: FIG. 1, FIG. 2
Method: as §1, §2

Row | SMILES | breaking of the IE2 negative feedback (geometric mean of GFP) [1] | percent GFP-positive cells ([2]; 0.25 μM Hoechst 33342, 24 hours, cells with LM2ig construct, FIG. 5) | breaking of the IE2 negative feedback circuit ([2]; 24-28 hour exposure) | reactivation of the LM2ig minimal circuit ([2]; Hoechst 33258: after 24 hours) | increase in the number of GFP-positive cells [2] [fold] | breaking of the minimal LM2ig circuit ([2]; after 24 hours, alone) | breaking of the circuit and reactivation of the promoter from an off (silenced) state ([2]; long-term (e.g., 8-10 days) exposure) | quiescent MIEP-driven expression in a reporter cell line ([2]; ARPE-19 cells harboring LM2ig) | production of IE2, as measured by GFP expression (GFP mean fluorescence intensity; GFP-MFI) [2] | reactivation of latent CMV [3] | cell viability / cytotoxicity [4] | number of GFP-positive cells ([2]; ARPE-19 cells harboring LM2ig, Hoechst 33258 with or without VPA, FIG. 7) | mean fluorescence intensity (MFI) ([2]; ARPE-19 cells harboring LM2ig, Hoechst 33258 with or without VPA, FIG. 8)
1 | CCOc1ccc(-c2nc3ccc(-c4nc5ccc(N6CCN(C)CC6)cc5[nH]4)cc3[nH]2)cc1 [Hoechst 33342, 2′-[4-ethoxyphenyl]-5-[4-methyl-1-piperazinyl]-2,5′-bi-1H-benzimidazole trihydrochloride trihydrate] | specifically break the IE2 negative feedback | increased | breaks the IE2 negative feedback circuit | strongly reactivates | 3.49 | does not break | breaks the circuit and reactivates the promoter | – | – | – | – | – | –
2 | CC(/C=C/C(=O)NO)=C\[C@@H](C)C(=O)c1ccc(N(C)C)cc1 [TSA, (R,2E,4E)-7-(4-(dimethylamino)phenyl)-N-hydroxy-4,6-dimethyl-7-oxohepta-2,4-dienamide, reference compound] | – | – | – | – | – | – | – | not | increased IE2 expression | not | not cytotoxic | – | –
3 | CCCC(CCC)C(=O)O [VPA, valproic acid, reference compound] | – | – | – | – | 1.69 | – | – | not | increased IE2 expression | not | not cytotoxic | induced an increase | did not substantially increase MFI
